# Data as given in patent EP0065874A1, “2-Aminophenol derivatives, methods for their preparation and composition containing the same” (ONO PHARMACEUTICAL CO., LTD., priority 1981, dated 1982).
# Where a name gives a salt, the structure may show the parent alone.
# System: cyclooxygenase
# Assay: Standard assay system using polymorphonuclear leukocytes: inhibition of HHT or TXB2 production from [1-14C] arachidonic acid
# Assay type: cell-based
# Conditions: polymorphonuclear leukocytes from guinea pig (4 x 10^7 cells), 5 minutes at 30°C, read-out: concentrations for 50% inhibitions on cyclooxygenase
# Method: The experiments for screening using polymorphonuclear leukocytes was carried out as follows: The reaction mixture (0.1 ml) containing 5 umole of potassium phosphate at pH 7.4, 0.1 µmole of calsium chloride, polymorphonuclear leukocytes prepared from guinea pigs (4 x 10^7 cells) and test compound was preincubated for 5 minutes at 30°C. The reaction was started by the addition of [^1-14C] arachidonic acid ([…] dpm, 1.8 nmole), followed by the incubation at 30°C for 5 minutes. The reaction was terminated by the addition of 0.3 ml of mixture of ether/ methanol/lM citric acid (30/4/1). The organic phase (20 µl) was applied to silica gel plate. Thin layer chromatography was performed to separate each product with solvent system of ether/petroleum ether/acetic acid (85/15/0.1).
# Activity of 5-lipoxygenase and cyclooxygenase were calculated from the measurement of the radioactivity corresponding to 5-HETE and 12L-hydroxy-5,8,10-heptareienoic acid (i.e. HHT) or thromboxane B2 (i.e. TXB2). [it have been known that HHT and TXB2 were the last products of the system concerning cyclooxygenase in the arachidonate cascade] Further, it was determined that the concentrations of 50% inhibitions to produce 5-HETE and HHT or TXB2 for the 50% inhibiting concentrations of 5-lipoxygenase and cyclooxygenase, respectively.
row,IC50,Compound
1,7.2 µM,Nc1cc(F)cc(C(O)c2ccc(Cl)cc2)c1O (stereo not drawn) [3-Amino-4'-chloro-5-fluoro-2-hydroxybenzhydrol hydrochloride]
2,100 µM,CC(C)(C)c1cc(N)c(O)c(C(O)c2ccc(Cl)cc2)c1 (stereo not drawn) [3-Amino-5-t-butyl-4'-chloro-2-hydroxybenzhydrol hydrochloride]
3,2 µM,Nc1cc(F)cc(C(=O)c2ccc(Cl)cc2)c1O [3-Amino-4'-chloro-5-fluoro-2-hydroxybenzophenona]
4,3 µM,"Nc1cc(Cl)cc(C(=O)c2ccc(Cl)cc2)c1O [3-Amino-5,4'-dichloro-2-hydroxybenzophenone]"

# System: mice
# Assay: Acute toxicity by intravenous injection
# Assay type: in vivo
# Conditions: intravenous injection to tail vein, doses of 10 mg/Kg and 30 mg/Kg
# Method: On the other hand, all extent of the compounds of the present invention were confirmed that their acute toxicities were more than 30 mg/Kg by intravenous injection. Therefore, the compounds of the present invention may be considered to be sufficiently safe and suitable for medical use.
row,Compound,dead case in 30 cases
1,CCCCCCC(O)c1cc(C(C)(C)C)cc(N)c1O (stereo not drawn) [2-Amino-4-t-butyl-6-(1-hydroxyheptyl)phenol],no dead case
2,COc1ccc(C(=O)c2cc(Cl)cc(N)c2O)cc1.Cl [3-Amino-5-chloro-2-hydroxy-4'-methoxybenzophenone hydrochloride],no dead case
